“And” between values parts separate entries of the source, which are not always exact repeats. Identical values can stand only once. Toxic doses and inconclusive results are not listed.
Test system: L1210 leukemia ip in BDF1 mice, survival T/C
Assay: NCI In Vivo Anticancer Drug Screen. Data for tumor model L1210 Leukemia (intraperitoneal) in B6D2F1 (BDF1) mice
Details: higher = longer survival
Outline: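 Mice bearing the transplanted tumor received compound or vehicle. Survival of the treated group was divided by that of the vehicle-treated control group to give the ratio.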

SMILES: NC(C/[N+]([O-])=N/O)C(=O)O (stereo not given)
- T/C (endpoint: mean survival time, dose: 6.25 mg/kg/injection, schedule: Q01DX009 (ip), vehicle: saline): 117 % of control and 118 % of control
- T/C (endpoint: mean survival time, dose: 8.0 mg/kg/injection, schedule: Q03HX016 (ip), vehicle: saline): 111 % of control
- T/C (endpoint: mean survival time, dose: 8.0 mg/kg/injection, schedule: Q03HX024 (ip), vehicle: saline): 113 % of control
- T/C (endpoint: mean survival time, dose: 12.5 mg/kg/injection, schedule: Q01DX009 (ip), vehicle: saline): 117 % of control and 122 % of control and 123 % of control
- T/C (endpoint: mean survival time, dose: 16.0 mg/kg/injection, schedule: Q03HX008 (ip), vehicle: saline): 111 % of control
- T/C (endpoint: mean survival time, dose: 16.0 mg/kg/injection, schedule: Q03HX016 (ip), vehicle: saline): 116 % of control
- T/C (endpoint: mean survival time, dose: 16.0 mg/kg/injection, schedule: Q03HX024 (ip), vehicle: saline): 118 % of control
- T/C (endpoint: mean survival time, dose: 20.0 mg/kg/injection, schedule: Q01DX009 (ip), vehicle: saline): 118 % of control
- T/C (endpoint: mean survival time, dose: 25.0 mg/kg/injection, schedule: Q01DX001 (ip), vehicle: carboxymethylcellulose (CMC)): 112 % of control
- T/C (endpoint: mean survival time, dose: 25.0 mg/kg/injection, schedule: Q01DX009 (ip), vehicle: saline): 120 % of control and 123 % of control
- T/C (endpoint: mean survival time, dose: 30.0 mg/kg/injection, schedule: Q01DX009 (ip), vehicle: saline with Tween-80): 111 % of control
- T/C (endpoint: mean survival time, dose: 32.0 mg/kg/injection, schedule: Q01DX009 (ip), vehicle: saline): 116 % of control
- T/C (endpoint: mean survival time, dose: 32.0 mg/kg/injection, schedule: Q01DX009 (sc), vehicle: saline): 117 % of control
- T/C (endpoint: mean survival time, dose: 32.0 mg/kg/injection, schedule: Q03HX008 (ip), vehicle: saline): 116 % of control
- T/C (endpoint: mean survival time, dose: 32.0 mg/kg/injection, schedule: Q03HX024 (ip), vehicle: saline): 121 % of control
- T/C (endpoint: mean survival time, dose: 40.0 mg/kg/injection, schedule: Q01DX009 (ip), vehicle: saline): 121 % of control
- T/C (endpoint: mean survival time, dose: 44.0 mg/kg/injection, schedule: Q01DX009 (ip), vehicle: saline with Tween-80): 108 % of control
- T/C (endpoint: mean survival time, dose: 50.0 mg/kg/injection, schedule: Q01DX001 (ip), vehicle: carboxymethylcellulose (CMC)): 106 % of control
- T/C (endpoint: mean survival time, dose: 54.0 mg/kg/injection, schedule: Q04DX003 (ip), vehicle: saline with Tween-80): 110 % of control
- T/C (endpoint: mean survival time, dose: 64.0 mg/kg/injection, schedule: Q01DX001 (oral), vehicle: saline): 107 % of control
- T/C (endpoint: mean survival time, dose: 64.0 mg/kg/injection, schedule: Q01DX009 (ip), vehicle: saline): 123 % of control
- T/C (endpoint: mean survival time, dose: 64.0 mg/kg/injection, schedule: Q01DX009 (oral), vehicle: saline): 92 % of control
- T/C (endpoint: mean survival time, dose: 64.0 mg/kg/injection, schedule: Q01DX009 (sc), vehicle: saline): 118 % of control
- T/C (endpoint: mean survival time, dose: 64.0 mg/kg/injection, schedule: Q03HX008 (ip), vehicle: saline): 116 % of control
- T/C (endpoint: mean survival time, dose: 64.0 mg/kg/injection, schedule: Q03HX024 (ip), vehicle: saline): 122 % of control
- T/C (endpoint: mean survival time, dose: 64.0 mg/kg/injection, schedule: Q04DX003 (ip), vehicle: saline): 117 % of control
- T/C (endpoint: mean survival time, dose: 64.0 mg/kg/injection, schedule: Q08DX002 (ip), vehicle: saline): 117 % of control
- T/C (endpoint: mean survival time, dose: 67.0 mg/kg/injection, schedule: Q01DX009 (ip), vehicle: saline with Tween-80): 104 % of control
- T/C (endpoint: mean survival time, dose: 100.0 mg/kg/injection, schedule: Q01DX001 (ip), vehicle: carboxymethylcellulose (CMC)): 110 % of control
- T/C (endpoint: mean survival time, dose: 100.0 mg/kg/injection, schedule: Q04DX003 (ip), vehicle: saline with Tween-80): 123 % of control
- T/C (endpoint: mean survival time, dose: 128.0 mg/kg/injection, schedule: Q01DX001 (ip), vehicle: saline): 118 % of control
- T/C (endpoint: mean survival time, dose: 128.0 mg/kg/injection, schedule: Q01DX001 (oral), vehicle: saline): 103 % of control
- T/C (endpoint: mean survival time, dose: 128.0 mg/kg/injection, schedule: Q01DX001 (sc), vehicle: saline): 104 % of control
- T/C (endpoint: mean survival time, dose: 128.0 mg/kg/injection, schedule: Q01DX009 (ip), vehicle: saline): 108 % of control
- T/C (endpoint: mean survival time, dose: 128.0 mg/kg/injection, schedule: Q01DX009 (sc), vehicle: saline): 102 % of control
- T/C (endpoint: mean survival time, dose: 128.0 mg/kg/injection, schedule: Q03HX008 (ip), vehicle: saline): 119 % of control
- T/C (endpoint: mean survival time, dose: 128.0 mg/kg/injection, schedule: Q03HX016 (ip), vehicle: saline): 122 % of control
- T/C (endpoint: mean survival time, dose: 128.0 mg/kg/injection, schedule: Q04DX003 (ip), vehicle: saline): 114 % of control
- T/C (endpoint: mean survival time, dose: 128.0 mg/kg/injection, schedule: Q08DX002 (ip), vehicle: saline): 112 % of control
- T/C (endpoint: mean survival time, dose: 150.0 mg/kg/injection, schedule: Q01DX009 (ip), vehicle: saline with Tween-80): 92 % of control
- T/C (endpoint: mean survival time, dose: 160.0 mg/kg/injection, schedule: Q01DX009 (ip), vehicle: saline): 116 % of control
- T/C (endpoint: mean survival time, dose: 187.0 mg/kg/injection, schedule: Q04DX003 (ip), vehicle: saline with Tween-80): 156 % of control
- T/C (endpoint: mean survival time, dose: 200.0 mg/kg/injection, schedule: Q01DX001 (ip), vehicle: carboxymethylcellulose (CMC)): 124 % of control
- T/C (endpoint: mean survival time, dose: 200.0 mg/kg/injection, schedule: Q01DX003 (ip), vehicle: sodium bicarbonate): 164 % of control
- T/C (endpoint: mean survival time, dose: 200.0 mg/kg/injection, schedule: Q01DX009 (ip), vehicle: saline): 102 % of control
- T/C (endpoint: mean survival time, dose: 256.0 mg/kg/injection, schedule: Q01DX001 (ip), vehicle: saline): 117 % of control
- T/C (endpoint: mean survival time, dose: 256.0 mg/kg/injection, schedule: Q01DX001 (oral), vehicle: saline): 103 % of control
- T/C (endpoint: mean survival time, dose: 256.0 mg/kg/injection, schedule: Q01DX001 (sc), vehicle: saline): 108 % of control
- T/C (endpoint: mean survival time, dose: 256.0 mg/kg/injection, schedule: Q01DX009 (ip), vehicle: saline): 95 % of control
- T/C (endpoint: mean survival time, dose: 256.0 mg/kg/injection, schedule: Q08DX002 (ip), vehicle: saline): 121 % of control
- T/C (endpoint: mean survival time, dose: 266.0 mg/kg/injection, schedule: Q04DX003 (ip), vehicle: saline with Tween-80): 115 % of control
- T/C (endpoint: mean survival time, dose: 400.0 mg/kg/injection, schedule: Q01DX003 (ip), vehicle: sodium bicarbonate): 172 % of control
- T/C (endpoint: mean survival time, dose: 400.0 mg/kg/injection, schedule: Q04DX003 (ip), vehicle: Klucel (hydroxypropylcellulose) (HPC)): 151 % of control
- T/C (endpoint: mean survival time, dose: 512.0 mg/kg/injection, schedule: Q01DX001 (ip), vehicle: saline): 117 % of control
- T/C (endpoint: mean survival time, dose: 512.0 mg/kg/injection, schedule: Q01DX001 (oral), vehicle: saline): 97 % of control
- T/C (endpoint: mean survival time, dose: 512.0 mg/kg/injection, schedule: Q01DX001 (sc), vehicle: saline): 106 % of control
- T/C (endpoint: mean survival time, dose: 600.0 mg/kg/injection, schedule: Q01DX003 (ip), vehicle: sodium bicarbonate): 172 % of control
- T/C (endpoint: mean survival time, dose: 600.0 mg/kg/injection, schedule: Q04DX003 (ip), vehicle: saline with Tween-80): 121 % of control
- T/C (endpoint: mean survival time, dose: 600.0 mg/kg/injection, schedule: Q04DX003 (ip), vehicle: saline): 161 % of control and 159 % of control
- T/C (endpoint: mean survival time, dose: 800.0 mg/kg/injection, schedule: Q01DX003 (ip), vehicle: sodium bicarbonate): 175 % of control
- T/C (endpoint: mean survival time, dose: 800.0 mg/kg/injection, schedule: Q04DX003 (ip), vehicle: Klucel (hydroxypropylcellulose) (HPC)): 106 % of control
- T/C (endpoint: mean survival time, dose: 800.0 mg/kg/injection, schedule: Q04DX003 (ip), vehicle: saline with Tween-80): 154 % of control
- T/C (endpoint: mean survival time, dose: 1000.0 mg/kg/injection, schedule: Q01DX003 (ip), vehicle: sodium bicarbonate): 96 % of control
- T/C (endpoint: mean survival time, dose: 1000.0 mg/kg/injection, schedule: Q04DX003 (ip), vehicle: saline with Tween-80): 92 % of control
- T/C (endpoint: mean survival time, dose: 1024.0 mg/kg/injection, schedule: Q01DX001 (sc), vehicle: saline): 110 % of control
- T/C (endpoint: mean survival time, dose: 1024.0 mg/kg/injection, schedule: Q04DX003 (ip), vehicle: saline): 150 % of control
- T/C (endpoint: median survival time, dose: 8.0 mg/kg/injection, schedule: Q01DX009 (ip), vehicle: saline): 105 % of control
- T/C (endpoint: median survival time, dose: 8.0 mg/kg/injection, schedule: Q01DX009 (oral), vehicle: saline): 100 % of control
- T/C (endpoint: median survival time, dose: 8.0 mg/kg/injection, schedule: Q01DX009 (sc), vehicle: saline): 105 % of control
- T/C (endpoint: median survival time, dose: 16.0 mg/kg/injection, schedule: Q01DX009 (oral), vehicle: saline): 100 % of control
- T/C (endpoint: median survival time, dose: 16.0 mg/kg/injection, schedule: Q01DX009 (sc), vehicle: saline): 100 % of control and 105 % of control
- T/C (endpoint: median survival time, dose: 32.0 mg/kg/injection, schedule: Q01DX009 (oral), vehicle: saline): 111 % of control
- T/C (endpoint: median survival time, dose: 32.0 mg/kg/injection, schedule: Q01DX009 (sc), vehicle: saline): 111 % of control
- T/C (endpoint: median survival time, dose: 64.0 mg/kg/injection, schedule: Q01DX009 (ip), vehicle: saline): 100 % of control and 111 % of control
- T/C (endpoint: median survival time, dose: 64.0 mg/kg/injection, schedule: Q04DX003 (ip), vehicle: saline): 105 % of control
- T/C (endpoint: median survival time, dose: 64.0 mg/kg/injection, schedule: Q04DX003 (oral), vehicle: saline): 100 % of control
- T/C (endpoint: median survival time, dose: 100.0 mg/kg/injection, schedule: Q04DX003 (ip), vehicle: saline): 116 % of control and 100 % of control
- T/C (endpoint: median survival time, dose: 128.0 mg/kg/injection, schedule: Q01DX009 (ip), vehicle: saline): 100 % of control
- T/C (endpoint: median survival time, dose: 128.0 mg/kg/injection, schedule: Q01DX009 (sc), vehicle: saline): 105 % of control
- T/C (endpoint: median survival time, dose: 128.0 mg/kg/injection, schedule: Q04DX003 (oral), vehicle: saline): 100 % of control
- T/C (endpoint: median survival time, dose: 200.0 mg/kg/injection, schedule: Q04DX003 (ip), vehicle: saline): 111 % of control
- T/C (endpoint: median survival time, dose: 400.0 mg/kg/injection, schedule: Q04DX003 (ip), vehicle: saline): 116 % of control
- T/C (endpoint: median survival time, dose: 1000.0 mg/kg/injection, schedule: Q04DX003 (ip), vehicle: saline): 155 % of control
- T/C (endpoint: median survival time, dose: 1024.0 mg/kg/injection, schedule: Q04DX003 (ip), vehicle: saline): 111 % of control
- T/C (endpoint: median survival time, dose: 1024.0 mg/kg/injection, schedule: Q04DX003 (sc), vehicle: saline): 94 % of control

— PubChem BioAssay AID248 (DTP/NCI, 2004)
